From ChEMBL document CHEMBL1201861, “Genomics of Drug Sensitity in Cancer screening data, Wellcome Trust Sanger Institute”
Blank lines part the entries; values can stand above or below the compound they belong to.

Tests used:
Assay in all cases: cells
[1] = test system: SF-268; format: functional, cell-based, Homo sapiens; conditions: Homo sapiens, SF-268;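 note: growth inhibition of SF-268 cells determined with a cell viability assay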
Description: SANGER: Inhibition of human SF268 cell growth in a cell viability assay.

[2] = test system: A498; format: functional, cell-based, Homo sapiens; conditions: Homo sapiens, A498;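 note: growth inhibition of human A498 cells, read out with a cell viability assay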
Description: SANGER: Inhibition of human A498 cell growth in a cell viability assay.

[3] = test system: ES8; format: functional, cell-based, Homo sapiens; conditions: Homo sapiens, ES8;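 note: growth inhibition of human ES8 cells, read out with a cell viability assay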
Description: SANGER: Inhibition of human ES8 cell growth in a cell viability assay.

[4] = test system: MZ7-mel; format: functional, cell-based, Homo sapiens; conditions: Homo sapiens, MZ7-mel;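 note: growth inhibition of human MZ7-mel cells, measured by a cell viability assay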
Description: SANGER: Inhibition of human MZ7-mel cell growth in a cell viability assay.

[5] = test system: A101D; format: functional, cell-based, Homo sapiens; conditions: Homo sapiens, A101D;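 note: growth inhibition of the cell line, measured with a viability assay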
Description: SANGER: Inhibition of human A101D cell growth in a cell viability assay.

[6] = test system: HH; format: functional, cell-based, Homo sapiens; conditions: Homo sapiens, HH
Description: SANGER: Inhibition of human HH cell growth in a cell viability assay.

[7] = test system: HOP-62; format: functional, cell-based, Homo sapiens; conditions: Homo sapiens, HOP-62;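 note: cell growth inhibition determined with a viability assay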
Description: SANGER: Inhibition of human HOP-62 cell growth in a cell viability assay.

[8] = test system: BB65-RCC; format: functional, cell-based, Homo sapiens; conditions: Homo sapiens, BB65-RCC;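 note: growth inhibition of the cell line, measured with a cell viability assay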
Description: SANGER: Inhibition of human BB65-RCC cell growth in a cell viability assay.

[9] = test system: KNS-42; format: functional, cell-based; conditions: Homo sapiens;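 note: growth inhibition of KNS-42 cells, read out with a cell viability assay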
Description: SANGER: Inhibition of human KNS-42 cell growth in a cell viability assay.

[10] = test system: MZ1-PC; format: functional, cell-based, Homo sapiens; conditions: Homo sapiens, MZ1-PC;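 note: cell viability assay measuring growth inhibition of human MZ1-PC cells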
Description: SANGER: Inhibition of human MZ1-PC cell growth in a cell viability assay.

[11] = test system: SF-126; format: functional, cell-based, Homo sapiens; conditions: Homo sapiens, SF-126;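 note: growth inhibition of human SF126 cells, read out with a cell viability assay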
Description: SANGER: Inhibition of human SF126 cell growth in a cell viability assay.

[12] = test system: GI-1; format: functional, cell-based, Homo sapiens; conditions: Homo sapiens, GI-1;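 note: growth inhibition of human GI-1 cells, measured with a cell viability readout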
Description: SANGER: Inhibition of human GI-1 cell growth in a cell viability assay.

[13] = test system: HCE-4; format: functional, cell-based; conditions: Homo sapiens;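 note: cell viability assay measuring inhibition of growth in the human HCE-4 cell line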
Description: SANGER: Inhibition of human HCE-4 cell growth in a cell viability assay.

[14] = test system: ES6; format: functional, cell-based; conditions: Homo sapiens;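 note: growth inhibition of human ES6 cells, read out with a cell viability assay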
Description: SANGER: Inhibition of human ES6 cell growth in a cell viability assay.

[15] = test system: LOX IMVI; format: functional, cell-based, Homo sapiens; conditions: Homo sapiens, LOX IMVI
Description: SANGER: Inhibition of human LOXIMVI cell growth in a cell viability assay.

[16] = test system: CGTH-W-1; format: functional, cell-based, Homo sapiens; conditions: Homo sapiens, CGTH-W-1;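 note: growth inhibition of human CGTH-W-1 cells measured by cell viability assay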
Description: SANGER: Inhibition of human CGTH-W-1 cell growth in a cell viability assay.

[17] = test system: KARPAS-45; format: functional, cell-based, Homo sapiens; conditions: Homo sapiens, KARPAS-45;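 note: inhibition of cell line growth, read out through a viability assay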
Description: SANGER: Inhibition of human KARPAS-45 cell growth in a cell viability assay.

[18] = test system: KARPAS-299; format: functional, cell-based, Homo sapiens; conditions: Homo sapiens, KARPAS-299
Description: SANGER: Inhibition of human KARPAS-299 cell growth in a cell viability assay.

[19] = test system: LS-123; format: functional, cell-based, Homo sapiens; conditions: Homo sapiens, LS-123
Description: SANGER: Inhibition of human LS-123 cell growth in a cell viability assay.

[20] = test system: SK-MEL-1; format: functional, cell-based, Homo sapiens; conditions: Homo sapiens, SK-MEL-1;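 note: growth inhibition of human SK-MEL-1 cells, read out by a cell viability assay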
Description: SANGER: Inhibition of human SK-MEL-1 cell growth in a cell viability assay.

[21] = test system: GOTO; format: functional, cell-based, Homo sapiens; conditions: Homo sapiens, GOTO;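 note: growth inhibition of GOTO cells, read out by a cell viability assay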
Description: SANGER: Inhibition of human GOTO cell growth in a cell viability assay.

[22] = test system: IA-LM; format: functional, cell-based; conditions: Homo sapiens;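 note: cell viability assay measuring growth inhibition of human IA-LM cells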
Description: SANGER: Inhibition of human IA-LM cell growth in a cell viability assay.

[23] = test system: COLO-800; format: functional, cell-based, Homo sapiens; conditions: Homo sapiens, COLO-800;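 note: growth inhibition of COLO-800 cells, read out with a cell viability assay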
Description: SANGER: Inhibition of human COLO-800 cell growth in a cell viability assay.

[24] = test system: MFM-223; format: functional, cell-based, Homo sapiens; conditions: Homo sapiens, MFM-223
Description: SANGER: Inhibition of human MFM-223 cell growth in a cell viability assay.

[25] = test system: SH-4; format: functional, cell-based; conditions: Homo sapiens;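 note: growth inhibition of SH-4 cells, read out with a cell viability assay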
Description: SANGER: Inhibition of human SH-4 cell growth in a cell viability assay.

[26] = test system: Mo; format: functional, cell-based, Homo sapiens; conditions: Homo sapiens, Mo
Description: SANGER: Inhibition of human Mo-T cell growth in a cell viability assay.

[27] = test system: 8-MG-BA; format: functional, cell-based, Homo sapiens; conditions: Homo sapiens, 8-MG-BA;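 note: growth inhibition of 8-MG-BA cells, read out with a cell viability assay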
Description: SANGER: Inhibition of human 8-MG-BA cell growth in a cell viability assay.

[28] = test system: SNB-75; format: functional, cell-based, Homo sapiens; conditions: Homo sapiens, SNB-75;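 note: cell viability assay measuring growth inhibition of human SNB-75 cells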
Description: SANGER: Inhibition of human SNB75 cell growth in a cell viability assay.

[29] = test system: ES1; format: functional, cell-based, Homo sapiens; conditions: Homo sapiens, ES1;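 note: growth inhibition of ES1 cells, read out with a cell viability assay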
Description: SANGER: Inhibition of human ES1 cell growth in a cell viability assay.

[30] = test system: LU-134-A; format: functional, cell-based, Homo sapiens; conditions: Homo sapiens, LU-134-A
Description: SANGER: Inhibition of human LU-134-A cell growth in a cell viability assay.

[31] = test system: SF-539; format: functional, cell-based, Homo sapiens; conditions: Homo sapiens, SF-539;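 note: Read-out is a cell viability assay, with IC50 reflecting inhibition of cell growth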
Description: SANGER: Inhibition of human SF539 cell growth in a cell viability assay.

[32] = test system: TE-12; format: functional, cell-based, Homo sapiens; conditions: Homo sapiens, TE-12;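 note: growth inhibition of TE-12 cells, read out by a cell viability assay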
Description: SANGER: Inhibition of human TE-12 cell growth in a cell viability assay.

[33] = test system: GB-1; format: functional, cell-based, Homo sapiens; conditions: Homo sapiens, GB-1;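 note: growth of GB-1 cells judged by a viability assay, IC50 marks the concentration inhibiting growth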
Description: SANGER: Inhibition of human GB-1 cell growth in a cell viability assay.

[34] = test system: NCI-H1355; format: functional, cell-based, Homo sapiens; conditions: Homo sapiens, NCI-H1355;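 note: growth inhibition of human NCI-H1355 cells, read out by a cell viability assay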
Description: SANGER: Inhibition of human NCI-H1355 cell growth in a cell viability assay.

[35] = test system: KS-1; format: functional, cell-based; conditions: Homo sapiens;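 note: growth inhibition of KS-1 cells, read out with a cell viability assay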
Description: SANGER: Inhibition of human KS-1 cell growth in a cell viability assay.

[36] = test system: C2BBe1; format: functional, cell-based, Homo sapiens; conditions: Homo sapiens, C2BBe1;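 note: growth inhibition of C2BBe1 cells, read out through a viability assay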
Description: SANGER: Inhibition of human C2BBe1 cell growth in a cell viability assay.

[37] = test system: SCC-15; format: functional, cell-based, Homo sapiens; conditions: Homo sapiens, SCC-15;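 note: growth inhibition of SCC-15 cells, read out with a cell viability assay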
Description: SANGER: Inhibition of human SCC-15 cell growth in a cell viability assay.

[38] = test system: VA-ES-BJ; format: functional, cell-based, Homo sapiens; conditions: Homo sapiens, VA-ES-BJ;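 note: growth inhibition of the VA-ES-BJ cell line, read out by a cell viability assay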
Description: SANGER: Inhibition of human VA-ES-BJ cell growth in a cell viability assay.

[39] = test system: D-263MG; format: functional, cell-based, Homo sapiens; conditions: Homo sapiens, D-263MG
Description: SANGER: Inhibition of human D-263MG cell growth in a cell viability assay.

[40] = test system: MLMA; format: functional, cell-based, Homo sapiens; conditions: Homo sapiens, MLMA;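 note: growth inhibition of MLMA cells (human), determined through a cell viability readout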
Description: SANGER: Inhibition of human MLMA cell growth in a cell viability assay.

[41] = test system: LB2518-MEL; format: functional, cell-based; conditions: Homo sapiens;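 note: growth inhibition of human LB2518-MEL cells, measured with a cell viability assay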
Description: SANGER: Inhibition of human LB2518-MEL cell growth in a cell viability assay.

[42] = test system: Ramos-2G6-4C10; format: functional, cell-based, Homo sapiens; conditions: Homo sapiens, Ramos-2G6-4C10;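 note: growth inhibition of the cell line, measured by a cell viability read-out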
Description: SANGER: Inhibition of human Ramos-2G6-4C10 cell growth in a cell viability assay.

[43] = test system: TGBC24TKB; format: functional, cell-based; conditions: Homo sapiens;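 note: growth inhibition of human TGBC24TKB cells, read out with a cell viability assay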
Description: SANGER: Inhibition of human TGBC24TKB cell growth in a cell viability assay.

[44] = test system: LNCaP-Clone-FGC; format: functional, cell-based, Homo sapiens; conditions: Homo sapiens, LNCaP-Clone-FGC
Description: SANGER: Inhibition of human LNCaP-Clone-FGC cell growth in a cell viability assay.

[45] = test system: NCI-H209; format: functional, cell-based, Homo sapiens; conditions: Homo sapiens, NCI-H209;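 note: growth inhibition of human NCI-H209 cells, measured by a cell viability assay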
Description: SANGER: Inhibition of human NCI-H209 cell growth in a cell viability assay.

[46] = test system: RPMI-8866; format: functional, cell-based, Homo sapiens; conditions: Homo sapiens, RPMI-8866
Description: SANGER: Inhibition of human RPMI-8866 cell growth in a cell viability assay.

[47] = test system: DMS-114; format: functional, cell-based, Homo sapiens; conditions: Homo sapiens, DMS-114
[48] = test system: ETK-1; format: functional, cell-based, Homo sapiens; conditions: Homo sapiens, ETK-1;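 note: growth inhibition of human ETK-1 cells, read out with a cell viability assay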
Description: SANGER: Inhibition of human ETK-1 cell growth in a cell viability assay.

[49] = test system: NTERA-2-cl-D1; format: functional, cell-based, Homo sapiens; conditions: Homo sapiens, NTERA-2-cl-D1;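 note: inhibition of cell growth, measured with a cell viability assay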
Description: SANGER: Inhibition of human NTERA-S-cl-D1 cell growth in a cell viability assay.

SMILES: CN(NC(=O)CC(=O)NN(C)C(=S)c1ccccc1)C(=S)c1ccccc1 [ELESCLOMOL]
IC50 [1]: 0.0129 µM
IC50 [2]: 0.0465 µM
IC50 [3]: 0.00132 µM
IC50 [4]: 0.0127 µM
IC50 [5]: 0.0114 µM
IC50 [6]: > 0.2 µM
IC50 [7]: 0.122 µM
IC50 [8]: 0.0242 µM
IC50 [9]: > 0.2 µM
IC50 [10]: 0.144 µM
IC50 [11]: 0.00195 µM
IC50 [12]: 0.00826 µM
IC50 [13]: 0.0591 µM
IC50 [14]: 0.04 µM
IC50 [15]: 0.171 µM
IC50 [16]: 0.011 µM
IC50 [17]: > 0.2 µM
IC50 [18]: 0.0374 µM
IC50 [19]: 0.0485 µM
IC50 [20]: > 0.2 µM
IC50 [21]: 0.0187 µM
IC50 [22]: 0.0844 µM
IC50 [23]: 0.0299 µM
IC50 [24]: 0.0452 µM
IC50 [25]: > 0.2 µM
IC50 [26]: > 0.2 µM
IC50 [27]: 0.00914 µM
IC50 [28]: 0.105 µM
IC50 [29]: 0.000749 µM
IC50 [30]: > 0.2 µM
IC50 [31]: 0.0244 µM
IC50 [32]: > 0.2 µM
IC50 [33]: 0.00671 µM
IC50 [34]: 0.00889 µM
IC50 [35]: 0.0138 µM
IC50 [36]: 0.103 µM
IC50 [37]: 0.0256 µM
IC50 [38]: 0.00764 µM
IC50 [39]: > 0.2 µM
IC50 [40]: 0.0136 µM
IC50 [41]: 0.0669 µM
IC50 [42]: 0.012 µM
IC50 [43]: 0.0129 µM
IC50 [44]: 0.00773 µM
IC50 [45]: > 0.2 µM
IC50 [46]: 0.03 µM
IC50 [47]: 0.00943 µM
IC50 [48]: 0.035 µM
IC50 [49]: 0.0194 µM

IC50 [7]: 0.181 µM
IC50 [12]: 0.319 µM
IC50 [17]: > 0.512 µM
IC50 [18]: > 0.512 µM
IC50 [37]: > 0.512 µM
IC50 [48]: 0.377 µM
IC50 [49]: 0.209 µM
SMILES: CO[C@@H]1[C@H](N(C)C(=O)c2ccccc2)C[C@H]2O[C@]1(C)n1c3ccccc3c3c4c(c5c6ccccc6n2c5c31)C(=O)NC4 [MIDOSTAURIN]
